Source: PMC7822874, “Chemoprotective antimalarials identified through quantitative high-throughput screening of Plasmodium blood and liver stage parasites” (Scientific Reports, 2021)
Several values for one entry are separate records, joined by “and”; a condition that tells them apart may be missing. Identical values can stand only once. Like-named read-outs stand apart in the source and are kept apart here.

Tests used:
[1] = target: Firefly luciferase (Fluc, EC 1.13.12.7) (Photinus pyralis, UniProt P08659); experiment: biochemical; set-up: single determination (the paper says generally: 'qHTS assays were performed in a single replicate with a 7- to 11-point dose response format'; it is not stated for this counterscreen itself)
[2] = test system: Plasmodium falciparum Dd2 asexual blood stage parasites; experiment: microbe, parasite or virus in culture; set-up: species or system Plasmodium falciparum Dd2 in human erythrocytes; single determination (one 11-point concentration-response curve); conditions: Plasmodium falciparum, DD2, Erythrocyte, 72 h; read-out: AC50
[3] = test system: P. berghei-ANKA-GFP-LucCON liver stage parasites in HepG2-A16-CD81EGFP cells; experiment: P. berghei liver stage Pb-Luc assay, Method 1 (UCSD, 1536-well); format: cell-based, Plasmodium berghei; conditions: Plasmodium berghei, 48 h, P. berghei liver stage, average of 2 wells on a 1536 well plate; for activity at 1 µM: 1 µM compound treatment (10 mM stocks); for activity at 3 µM: 3 µM compound treatment (10 mM stocks)
HepG2-A16-CD81EGFP cells = conditions: average of 2 wells
HepG2 = conditions: human, hepg2 cells, 48 h
in vitro [4] = conditions: human, hepg2 cells
in vitro [5] = conditions: human, HepG2-A16-CD81EGFP cells, uninfected
[6] = test system: luciferase-expressing P. berghei liver stage parasites in HepG2 cells; experiment: Inhibition of liver-stage development assay (ILSDA), Method 2 (WRAIR, 96-well); format: cell-based, Plasmodium berghei; conditions: for AC50: Plasmodium berghei, HepG2, Method 2
in vitro [7] = conditions: human, HepG2 cells; n = 1
[8] = test system: P. falciparum Dd2 Cytb G131S; experiment: SYBR Green ABS proliferation assay, NCGC00374598 selected clone C11; format: cell-based, Plasmodium falciparum; conditions: Plasmodium falciparum, DD2, […]; averaged from three independent replicates; top concentration 29 µM; read-out: Average AC50 (Log[M]), NCGC00374598 clone C11 (Cytb G131S) (converted)
How it was run: (§1)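 Proliferation of cytb-mutant Dd2 clones was measured by SYBR Green-I fluorescence at 72 h, normalized to controls.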

[9] = test system: P. falciparum Dd2 Cytb F123L; experiment: SYBR Green ABS proliferation assay, NCGC00473217 selected clone G08; format: cell-based, Plasmodium falciparum; conditions: Plasmodium falciparum
How it was run: as §1

[10] = test system: T1, Plasmodium falciparum Dd2-attB-ScDHODH (transgenic line expressing yeast DHODH), asexual blood stages; experiment: organism not typed; set-up: replicate k of 3 (each line is one of three independent assays; the three lines of one compound and parasite line follow each other); conditions: 72 h, n = 1
T1 construct: Dd2-attB-ScDHODH, the transgenic line that expresses yeast DHODH
How it was run: (§2)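 We compare activity in parasites carrying fumarate-using yeast DHODH with that in the parental line; mETC or parasite DHODH inhibitors are bypassed by this enzyme. Data come from three independent assays, analysed by two-sided Student's t-tests.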

[11] = test system: P. falciparum Dd2 Cytb V259L; experiment: SYBR Green ABS proliferation assay, NCGC00473217 selected clone F06; format: cell-based, Plasmodium falciparum; conditions: Plasmodium falciparum
How it was run: as §1

[12] = test system: T2, Plasmodium falciparum Dd2-attB (parental line), asexual blood stages; experiment: microbe, parasite or virus in culture; set-up: replicate k of 3 (each line is one of three independent assays; the three lines of one compound and parasite line follow each other); conditions: n = 1
T2 construct: Dd2-attB, the isogenic parental line
How it was run: as §2

[13] = test system: P. falciparum Dd2 Cytb A122D; experiment: SYBR Green ABS proliferation assay, NCGC00473217 selected clone F12; format: cell-based, Plasmodium falciparum; conditions: Plasmodium falciparum, DD2, […]; averaged from three independent replicates; top concentration 29 µM; read-out: Average AC50 (Log[M]), NCGC00473217 clone F12 (Cytb A122D) (converted)
How it was run: as §1

[14] = test system: T2, Plasmodium falciparum Dd2-attB (parental line), asexual blood stages; experiment: microbe, parasite or virus in culture; set-up: species or system P. falciparum Dd2-attB in human erythrocytes; SYBR Green-I proliferation assay, Dd2-attB parental line, asexual blood stages; conditions: Plasmodium falciparum, DD2, Erythrocyte, 72 h, read-out: Calculated / Average Log AC50 (M), mean of replicates, 72 h (converted)
[15] = test system: P. falciparum Dd2 (clone B2) asexual blood stage parasites; experiment: P. falciparum Dd2 asexual blood stage SYBR Green-I 72 h proliferation assay (qHTS); format: cell-based, Plasmodium falciparum; conditions: Plasmodium falciparum, DD2, Dd2 parental; Hill fit, averaged from three independent replicates; top concentration 29 µM; read-out: Average AC50 (Log[M]), Dd2 (converted)

Chain of Firefly luciferase (Fluc, EC 1.13.12.7) (P08659 whole entry): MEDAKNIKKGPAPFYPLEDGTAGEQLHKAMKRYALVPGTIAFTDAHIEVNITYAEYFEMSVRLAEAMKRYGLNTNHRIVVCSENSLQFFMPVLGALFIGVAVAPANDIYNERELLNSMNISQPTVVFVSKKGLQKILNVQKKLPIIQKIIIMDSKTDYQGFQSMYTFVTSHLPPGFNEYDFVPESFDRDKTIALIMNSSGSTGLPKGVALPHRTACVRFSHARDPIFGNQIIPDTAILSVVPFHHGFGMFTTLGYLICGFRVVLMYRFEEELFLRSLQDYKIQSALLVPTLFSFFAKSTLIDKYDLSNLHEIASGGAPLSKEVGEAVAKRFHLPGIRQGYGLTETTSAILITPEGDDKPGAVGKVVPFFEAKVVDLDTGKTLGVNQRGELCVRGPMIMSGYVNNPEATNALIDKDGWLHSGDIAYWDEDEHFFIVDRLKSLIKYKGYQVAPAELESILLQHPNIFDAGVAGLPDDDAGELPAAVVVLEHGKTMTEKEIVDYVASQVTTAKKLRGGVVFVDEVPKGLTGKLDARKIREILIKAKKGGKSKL

## Nc1nc(Nc2ccccc2)nc2ccccc12 [MLS000026767-01]
[1]
  AC50: 13.6 µM

## N#CC(=C1CCCC1)c1nc(-c2ccccc2O)cs1 [MLS000034824-01]
[2]
  AC50: 9.44 µM
[1]
  AC50: 19.2 µM

## Cc1ccc(C(=O)Nc2sc3c(c2C(=O)O)CCCCC3)o1 [MLS000060651-01]
[1]
  AC50: 10.8 µM

## Cc1ccoc1C(=O)Nc1ccc(CC(=O)O)cc1 [MLS000122814-01]
[1]
  AC50: 12.1 µM

## O=C(O)COc1ccc(-c2nccc(-c3cccs3)n2)cc1 [MLS000331320-01]
[1]
  AC50: 6.81 µM

## Cc1nn(-c2ccccc2)c(C)c1/C=N/Nc1nc2ccccc2[nH]1 [MLS000332160-01]
[2]
  AC50: 1.5 µM
[3]; replicate 1, normalized, read-out: PbLuc 1uM growth rep1
  activity at 1 µM: 86%
[3]; replicate 2, normalized, read-out: PbLuc 1uM growth rep2
  activity at 1 µM: 81%
[3]; replicate 1, normalized, read-out: PbLuc 3uM growth rep1
  activity at 3 µM: 33%
[3]; replicate 2, normalized, read-out: PbLuc 3uM growth rep2
  activity at 3 µM: 53%
HepG2-A16-CD81EGFP cells; HepG2, 1 µM compound treatment (10 mM stocks), replicate 1, normalized
  HepG2 1uM growth rep1: 93%
HepG2-A16-CD81EGFP cells; HepG2, 1 µM compound treatment (10 mM stocks), replicate 2, normalized
  HepG2 1uM growth rep2: 90%
HepG2-A16-CD81EGFP cells; HepG2, 3 µM compound treatment (10 mM stocks), replicate 1, normalized
  HepG2 3uM growth rep1: 89%
HepG2-A16-CD81EGFP cells; HepG2, 3 µM compound treatment (10 mM stocks), replicate 2, normalized
  HepG2 3uM growth rep2: 86%
[1]
  AC50: 12.1 µM

## c1ccc2sc(Sc3ncnc4sccc34)nc2c1 [MLS000334432-01]
[2]
  AC50: 0.944 µM
[1]
  AC50: 8.57 µM

## Cc1ccc(-c2cc(O)c3cc(C)ccc3n2)cc1 [MLS000517822-01]
[2]
  AC50: 10.6 µM
[1]
  AC50: 12.1 µM

## Cc1cccnc1Nc1nc(-c2ccccn2)cs1 [MLS000528306-01]
[2]
  AC50: 0.473 µM
HepG2
  Log AC50 (M): -5.9643 M
In vitro [4]
  CC50 at 48 h: 1.09 µM
In vitro [5]
  viability at 48 h, 1 µM: 57%
  viability at 48 h, 3 µM: 30%
[1]
  AC50: 19.2 µM

## Cc1ccc2[nH]c(-c3sc4nc(C)ccc4c3N)nc2c1 [MLS000547128-01]
[1]
  AC50: 12.1 µM

## CCN(CC)CCN1C(=O)c2ccccc2NC1c1ccc(N(C)C)cc1 (centres unmarked) [MLS000554078-01]
[2]
  AC50: 4.22 µM
[1]
  AC50: 1.92 µM

## COC(=O)c1nn(-c2ccc3c(c2)CCN3C(C)=O)cc1O [MLS000565173-01]
[1]
  AC50: 10.8 µM

## CCOC(=O)Cc1csc(NC(=S)NC(=O)c2ccc(C)cc2)n1 [MLS000574610-01]
[1]
  AC50: 9.62 µM

## Cc1ccc(C)c(/N=N/c2nc3ccccc3n2C)c1 [MLS000577452-01]
[2]
  AC50: 0.299 µM
In vitro [5]
  viability at 48 h, 1 µM: 95%
  viability at 48 h, 3 µM: 88%
[1]
  AC50: 12.1 µM

## NC(=NOC(=O)/C=C/c1ccc(Br)cc1)c1ccccn1 [MLS000680558-01]
[1]
  AC50: 9.62 µM

## O=C(COc1ccc2ccccc2c1)Nc1nccs1 [MLS000718732-01]
[1]
  AC50: 8.57 µM

## Cc1ccc(-c2nc(C)c(C(=O)O)s2)cc1 [MLS000735996-01]
[1]
  AC50: 13.6 µM

## Cc1ccc2nc(N3C(=O)CNC3=S)sc2c1 [MLS000768544-01]
[1]
  AC50: 10.8 µM

## CC1(C)Cc2nc3sc4c(SCC(=O)O)ncnc4c3cc2CO1 [MLS000778156-01]
[1]
  AC50: 10.8 µM

## Cc1cc(C(N)=NOC(=O)c2ccccc2Cl)no1 [MLS000833967-01]
[1]
  AC50: 13.6 µM

## CCCc1ccc(C(=O)NC(=O)c2ccccc2O)cc1 [MLS000850457-01]
[2]
  AC50: 1.06 µM
In vitro [5]
  viability at 48 h, 1 µM: 101%
  viability at 48 h, 3 µM: 94%
[1]
  AC50: 5.41 µM
[6]; Method 2, Decrease = decreasing P. berghei viability with dose, Increase = increasing signal, Inactive = no dose response
  Max Resp (signal direction of the dose response): Decrease
[6]; Hill fit, 50% of maximum activity response, read-out: AC50
  AC50: 0.282 µM
[6]; log10 of molar AC50 from Hill fit, read-out: Log AC50 (converted)
  AC50: 0.282 µM

## C/C(=N\OCc1cccc(C(=O)O)c1)c1ccc(Cl)cc1 [MLS000850591-01]
[1]
  AC50: 0.0136 µM

## COc1ccc(C(=O)C=CNc2cc(C)ccn2)cc1 [MLS001043227-01]
[1]
  AC50: 8.57 µM

## NC(=NOC(=O)c1cccc(F)c1)c1ccccn1 [MLS001075504-01]
HepG2
  Log AC50 (M): -4.8143 M
In vitro [4]
  CC50 at 48 h: 15.3 µM
[1]
  AC50: 10.8 µM

## COc1cc(SC)ccc1C(=O)Nc1nc2ccccc2[nH]1 [MLS001172173-01]
In vitro [7]
  CC50 at 48 h: 19.3 µM
[1]
  AC50: 0.0171 µM

## N=c1n(N)c2ccccc2n1CC(=O)c1ccc(Br)cc1 [MLS001183984-01]
In vitro [5]
  viability at 66 h: 103%
[1]
  AC50: 12.1 µM

## O=C(NC1CCCCC1)c1[nH]nc2c1CCCCC2 [MLS002178094-01]
[1]
  AC50: 4.82 µM

## CCc1ccc2oc(-c3cccc(NC(=O)c4ccc(-c5cccc([N+](=O)[O-])c5)o4)c3)nc2c1 [NCGC00102150-01]
[1]
  AC50: 15.2 µM

## Cc1ccc(C(=O)NCCn2c(C)cc3ccccc32)cc1C [NCGC00107199-01]
[1]
  AC50: 4.3 µM

## Cc1cc(N2CCN(C)CC2)nc2ccc(NC(=O)Nc3ccccc3Br)cc12 [NCGC00126483-01]
HepG2
  Log AC50 (M): -4.3643 M
In vitro [4]
  CC50 at 48 h: 43.2 µM
[1]
  AC50: 17.1 µM

## Cc1cn2c(=O)cc(COC(=O)c3cccc(NC(=O)COc4ccccc4Cl)c3)nc2s1 [NCGC00130619-01]
[1]
  AC50: 0.0341 µM

## CCc1ccc(C2=CC(c3cccc(C)c3)n3c(nc4ccccc43)N2)cc1 (centres unmarked) [NCGC00140745-01]
[2]
  AC50: 15 µM
[1]
  AC50: 4.82 µM

## O=C1c2cnc(-c3cc4ccccc4o3)nc2OCCN1Cc1ccccc1 [NCGC00413600-01]
[1]
  AC50: 11.1 µM

## COc1ccc(NC(=O)c2cccc3c2CCN3C(=O)Nc2ccc(F)cc2)c(C)c1 [NCGC00430188-01]
[1]
  AC50: 7.64 µM

## O=C(NCCC1=CCCCC1)C1CCN(C(=O)c2ncn3c2COC(c2ccccc2)C3)CC1 (centres unmarked) [NCGC00449771-01]
[1]
  AC50: 21.5 µM

## CCOc1ccc(NC(=O)c2ccc3c(c2)N(C)C2CCCN2C3=O)cc1 (centres unmarked) [NCGC00452128-01]
[1]
  AC50: 21.5 µM

## CCCN1C(CC(C)C)=N[S+](=O)([O-])c2cc(NC(=O)C3CC3)ccc21 [NCGC00510045-01]
[8]
  AC50: 3.99e-06 M
[9]; DD2, […], averaged from three independent replicates, top concentration 29 µM, read-out: Average AC50 (Log[M]), NCGC00473217 clone G08 (Cytb F123L) (converted)
  AC50: 1.12e-05 M
[10]
  Individual replicates / Log AC50 (M): -5.2986 Log AC50 (M) and -5.4486 Log AC50 (M)
[10]; read-out: Individual replicates / Log AC50 (converted)
  AC50: 3.99 µM
[11]; DD2, […], averaged from three independent replicates, top concentration 29 µM, read-out: Average AC50 (Log[M]), NCGC00473217 clone F06 (Cytb V259L) (converted)
  AC50: 3.05e-06 M
[12]; 72 h
  Individual replicates / Log AC50 (M): -5.8486 Log AC50 (M)
[12]; Plasmodium falciparum, DD2, 72 h, read-out: Individual replicates / Log AC50 (converted)
  AC50: 0.894 µM
[13]
  AC50: 4.32e-06 M
[14]
  AC50: 1.22e-06 M
[15]
  AC50: 4.32e-06 M

## CC(C)(C)OC(=O)N1CCc2nc(C3CC3)nc(O)c2CC1 [NCGC00510066-01]
[9]; DD2, cytochrome b mutant line, fifth value triple, c15, […], read-out: log AC50, mean (converted)
  AC50: 2.99e-06 M
[11]; DD2, cytochrome b mutant line, third value triple, c9, […], read-out: log AC50, mean (converted)
  AC50: 8.93e-09 M
[14]
  AC50: 8.94e-06 M
